In patent publication US8748598B2, “Analogs of 3-O-acetyl-11-keto-beta-boswellic acid” (Laila Nutraceuticals, priority 2004, dated 2014):
pIC50: −log10 of the molar value. Converted amounts (≈) assume the structure as drawn. “And” between values parts separate entries of the source, which are not always exact repeats. Identical values can stand only once. “Also recorded” adds a separate entry of the source. Like-named read-outs stand apart in the source and are kept apart here.

Key:
MDA-MB-231 [1] = assay: MTT cell proliferation assay, MDA-MB-231; format: cell-based, human; details: Table 4
Description: (§1) MTT [3-(4,5-dimethylthiazol-2-yl)-2,5-diphenyltetrazolium bromide] incorporation based cell proliferation assay was performed as described previously (Reference). The cytotoxic efficacy of some analogs was evaluated in different cell lines by MTT cell proliferation assay kit (Roche Applied Sciences, Germany). The assay was carried out according to the instruction provided by the vendor. Briefly, in brief, equal numbers of cells was plated in 96-well flat-bottomed plates in 100 μl of medium and were exposed to different analogs selected from 1 to 63 at various concentrations up to 10 μg/ml for a period of three days. Vehicle control culture wells received only a maximum of 0.5% DMSO. Thereafter, 0.5 mg/ml of MTT reagent was added to each well and the microplate was incubated further for 4 h at 37° C. in presence of 5% CO2. Finally, the cells were solubilized by adding solubilizing solution and allowed to incubate at 37° C. overnight. After complete solubilization of the formazan crystals the absorbance was read at 540 nm in a microplate reader (BioRad, USA). The results (mean OD±SD) obtained from quadruplicate wells were used in calculation to determine the inhibition of cell proliferation (50% of inhibitory concentration, IC50) of the test compounds.
(§2) The cytotoxic properties of some analogs were evaluated by MTT incorporation assay. The methodology of the assay procedure was the same as mentioned in example 41.

MCF-7 = assay: MTT cell proliferation assay, MCF-7; format: cell-based, human; details: Table 4
Description: as §1, §2

VEGF = details: HUVEC, 24 h, immunoblot; listed as LI51255
Description: Equal number of HUVEC human primary endothelial cells was plated in 35 mm culture dishes. The cells exposed to either 0.5% DMSO as vehicle or LI-51255 for 24 h. The cells were lysed in cell lysis buffer. The protein concentration of each lysate was determined by the BCA method (BioRad, Hercules, Calif.). Equal amount of cell lysates proteins was resolved in SDS-PAGE and the transferred proteins on nitrocellulose membrane were reacted with human anti-VEGF antibody (Cell Signaling Technology, Beverly, Mass.) overnight at 4° C. Immunoreactive proteins were detected using were developed with Super SignalWest Pico Chemiluminescent substrate (Pierce Biotechnology Inc.) and the band intensities were analyzed using Molecular Imaging Software, version 4.0 (Eastman Kodak Company, Rochester, N.Y.). Relative density was determined by normalization of the density of each blot with that of corresponding β-actin.

[2] = tested on: Human umbilical vein endothelial cells (HUVEC); assay: In vitro capillary-like tube formation assay; format: cell-based; details: HUVEC on Cultrex, 1, 2.5 and 5 μg/ml, 16 h; listed as LI-51255
Description: In vitro capillary formation assay was performed with Human umbilical vein endothelial cells (HUVEC), cultured on 10 mg/ml basement membrane extract (BME—Cultrex®, R&D Systems, USA) bed. The protocol of in vitro endothelial tube formation assay was the same as described earlier with some modifications (Reference). Briefly, four hundred microliters of Cultrex was coated at 4° C. in each well of 24-well culture plate and allowed to gel at 37° C. for 1 h. HUVECs were plated at a density of 7.5×10^4 cells per well with 400 μl of DMEM supplemented with 10% fetal bovine serum and 4.5 g/l D-glucose. The cells were then treated with either 0.5% DMSO or different concentrations of LI-51255 for 16 hours. Pictures were taken under a Nikon Eclipse TS 100 microscope equipped with a Nikon Coolpix camera (FIG. 1B).

AKT pathway = AKT pathway western immunoblot in MDA-MB-231 cells; format: cell-based, human; details: MDA-MB-231, 10 μg/ml, 0-240 min
Description: Equal number of MDA-MB-231 human breast tumor cells (ER-) was plated in 25 cm^2 cell culture flasks. The cells treated with either 0.5% DMSO as vehicle or 10 μg/ml of LI-51255 for 0, 5, 10, 20, 30, 60, 120 and 240 min. The cells were lysed in cell lysis buffer.

MDA-MB-231 [3] = assay: MDA-MB-231 clone (colony) formation in vitro; format: cell-based, human; details: 8 days
Description: Inhibitory efficacy in clone formation of LI-51255 was tested by following the procedure described earlier with some modifications (Wu et al. 2005). Briefly, MDA-MB-231 cells were harvested and seeded into 6-well plates (100 cells/ml). The cells were allowed to grow for 4 days and thereafter, the cells were incubated with DMEM containing either 0.5% DMSO or 25 μg/ml AKBA or different concentrations (1.0, 1.5, 2.0, 2.5 μg/ml) of LI-51255 for further 8 days. Fresh medium containing test agents was replaced at every 24 h. Finally, the wells were washed three times with PBS and fixed in methanol for 15 min. The cells were stained with Giemsa stain and observed under microscope. The image of the stained wells were captured digitally (Kodak Image Station 4000MM, Carestream Health Inc., New Haven, Conn.) and number of colonies were counted and analyzed by using NIH Image J software.

[4] = tested on: B16 murine melanoma cells; assay: Cell cycle analysis by flow cytometry; format: cell-based; details: 24 h
Description: For flow cytometry, cells were harvested after the treatment period, washed with phosphate buffered saline (PBS), and adjusted the cell count at 2×10^6 cells per milliliter. The cells were fixed in 70% ethanol for 30 min at 4° C. Cells were then washed two times with PBS and stained with 0.5 μg/ml propidium iodide at 37° C. for 30 min and analyzed by flow cytometry. Data were acquired on a FACS Scan flow cytometer (Becton Dickinson) and analyzed by using the Cellquest software.

[5] = tested on: B16 F0 melanoma xenograft; assay: B16 F0 melanoma xenograft model; format: in vivo, C57B6J mice; details: twelve days; for % reduction of tumor burden (w.r.t control): listed as LI-51255
Description: In vivo efficacy of LI-51255 against melanoma growth was evaluated in B16 F0 melanoma xenograft model of C57B6J mice. C57B6J mice of 6 weeks age (body weight 18-22 g) were purchased from National Institute of Nutrition (NIN), Hyderabad (India). Animals study protocols were approved by Institutional Ethics Committee (IAEC). All the studies were performed in compliance with the Committee for the Purpose of Control and Supervision of Experiments on Animals (CPCSEA) guidelines and OECD guidelines. Animals were allowed free access to standard feed and provided charcoal filtered and UV exposed water ad libitum. The animals were maintained at a controlled temperature (24-26° C.), humidity (45-70%), and 12 h/12 h of light/dark cycle.
To induce the melanoma tumor formation, sub-confluent B16F0 cells were harvested by brief trypsinization and 1×10^6 cells were injected subcutaneously in 0.2 mL phosphate-buffered saline. Drug treatment was started after development of palpable tumors (3-5 days after implantation of the cells). Drugs were prepared in phosphate-buffered saline (10% DMSO, v/v) and either 75 mg/kg of DTIC or different doses of LI-51255 (10 or 20 mg/kg) was administered daily through intra-peritoneal route. Vehicle treated control animals received only 10% DMSO in phosphate buffered saline. After twelve days of treatment, the animals were sacrificed by CO2 inhalation and tumors were excised and weighed.

[6] = tested on: Freund's Adjuvant-induced arthritis in Wistar Albino rats; assay: Freund's adjuvant-induced arthritis, paw edema; format: in vivo; details: 10 mg/kg daily oral for 30 days; edema 13 days after Freund's Adjuvant
Description: The Wistar Albino rats were divided into four groups with […] each group. The two treatment groups, each containing 6 animals, were orally supplemented with one of the two analogs namely glycinate of AKBA (10) or piperazine amide of AKBA (23) in 1% carbomethylcellulose (CMC) at a daily dose of 10 mg/kg for 30 days. The control group of animals received same volume of 1% CMC orally and a positive control group received 10 mg/kg daily dose of prednisolone for direct comparison. Following the 30 day treatment and one hour after the last dose all the animals were challenged with 0.1 mL of 1% solution of Freund's Adjuvant through a subcutaneous injection in the sub-plantar region of left hind paw. The paw volume was measured using a plethymograph. The difference between the paw volumes measured before and 13 days after the Freund's Adjuvant injection was taken as edema volume. The percentage inhibition was calculated by comparing the mean edema of the control group and treatment groups.

Brine shrimp = Brine shrimp lethality; format: in vivo; details: for pIC50: read-out: Brine shrimp lethality IC50
Description: The Brine shrimp lethality was evaluated for the analogs 1 to 28 and compared the activities with those of AKBA and a standard compound podophyllotoxin. The data was summarized already disclosed in our earlier application Ser. No. 10/540,257 which is granted under U.S. Pat. No. 7,625,947 which is incorporated herein by reference. The magnitude of Brine shrimp lethality obtained for the analogs has significant correlation with 5-LOX inhibitory activity.

Jurkat = format: cell-based, human; design: minimum inhibitory concentration (MIC) Jurkat: unit not given here; details: MTT assay
Description: as §1, §2

PC3M = assay: Cytotoxicity MTT assay, PC3M; format: cell-based, human; design: minimum inhibitory concentration (MIC) PC3M: unit not given here; details: for minimum inhibitory concentration (MIC) PC3M: MTT assay
HePG2 = assay: Cytotoxicity MTT assay, HePG2; format: cell-based, human; design: unit not given here
Description: as §1, §2

[7] = 10 mg/kg daily intra-peritoneal
[8] = 20 mg/kg daily intra-peritoneal

CC(=O)OC1CC[C@@]2(C)C(CC[C@]3(C)C2C(=O)C=C2C4[C@@H](C)[C@H](C)CC[C@]4(C)CC[C@]23C)[C@@]1(C)C(=O)NCCN (stereo partly drawn) [Analog 21, N-(3-O-Acetyl-11-keto-[beta]-boswelloyl)-ethylenediamine]
IC50 values MDA-MB-231 (MDA-MB-231 [1]): 3.45 µg/mL (≈ 6.22 µM) | IC50 values MCF-7 (MCF-7): 12.98 µg/mL (≈ 23.4 µM) | VEGF protein expression (VEGF): strongly inhibited | capillary-like tube formation [2]: dose-dependent inhibition; also recorded: inhibits capillary-like tube formation | AKT protein expression (AKT pathway): remains the same | phospho-raf (ser 259) expression (AKT pathway): up-regulation | phosphorylated AKT (ser 473) protein expression (AKT pathway; listed as LI-51255): deactivates AKT pathway; also recorded: time dependent down regulation | MDA-MB-231 colony formation (MDA-MB-231 [3]; 1.0, 1.5, 2.0, 2.5 μg/ml, listed as LI-51255): potentially inhibits the growth and development; also recorded: inhibition of MDA-MB-231 colony formation | cell cycle progression [4]: arrests the growth of B16 murine melanoma cells at the subG1 phase | G1 ([4]; LI-51255 5 (mg/ml)): 74.74 | G2/M ([4]; LI-51255 5 (mg/ml)): 12.2 | S ([4]; LI-51255 5 (mg/ml)): 11.18 | Sub G1 ([4]; LI-51255 5 (mg/ml)): 1.7 | G1 ([4]; LI-51255 10 (mg/ml)): 60.25 | G2/M ([4]; LI-51255 10 (mg/ml)): 9.19 | S ([4]; LI-51255 10 (mg/ml)): 10.87 | Sub G1 ([4]; LI-51255 10 (mg/ml)): 19.76 | Average weight of tumor [5, 7]: 4.575 gm | % reduction of tumor burden (w.r.t control) [5, 7]: 27.25% and 27.253% | Average weight of tumor [5, 8]: 3.050 gm | % reduction of tumor burden (w.r.t control) [5, 8]: 51.5% and 51.502%

CC(=O)OC1CCC2(C)C(CCC3(C)C2C(=O)C=C2C4C(C)C(C)CCC4(C)CCC23C)C1(C)C(=O)N1CCNCC1 (centres unmarked) [Analog 23]
inhibition of paw edema [6]: 16.4% and 16.3% | pIC50 (Brine shrimp; in vivo): 6.06 | IC50 values MDA-MB-231 (MDA-MB-231 [1]): IC50 at 5.53 μg/ml | IC50 values MCF-7 (MCF-7): IC50 at 9.03 μg/ml | minimum inhibitory concentration (MIC) Jurkat (Jurkat): 50 | cytotoxicity against PC3M (PC3M): significantly more potent | minimum inhibitory concentration (MIC) PC3M (PC3M): 10 | minimum inhibitory concentration (MIC) HePG2 (HePG2): 40

CC(=O)O[C@@H]1CC[C@@]2(C)C(CC[C@]3(C)C2C(=O)C=C2C4[C@@H](C)[C@H](C)CC[C@]4(C)CC[C@]23C)[C@@]1(C)N (some centres unmarked) [Analog 25]
inhibitory capabilities against brine shrimp (Brine shrimp; in vivo): potent inhibitory capabilities | IC50 (MDA-MB-231 [1]; Homo sapiens, MDA-MB-231): 13.2 µg/mL (≈ 27.3 µM) | IC50 (MCF-7; Homo sapiens, MCF7): 14 µg/mL (≈ 28.9 µM) | minimum inhibitory concentration (MIC) Jurkat (Jurkat): 50 | cytotoxicity against PC3M (PC3M): significantly more potent | minimum inhibitory concentration (MIC) PC3M (PC3M): 30 | minimum inhibitory concentration (MIC) HePG2 (HePG2): 50

3-O-acetyl-11-keto-β-boswellic acid [AKBA, reference compound]
MDA-MB-231 colony formation (MDA-MB-231 [3]; 25 μg/ml): inhibition of MDA-MB-231 colony formation

COc1cc([C@@H]2c3cc4c(cc3[C@H](O)[C@H]3COC(=O)[C@H]23)OCO4)cc(OC)c1OC [podophyllotoxin, reference compound]
pIC50 (Brine shrimp): 5.52
